Laboratory results published in ChEMBL document CHEMBL1159237, “The isolation and structural elucidation of three new neolignans, piperulins [corrected] A, B, and C, as platelet activating factor receptor antagonists from Piper puberulum” (J Nat Prod, 1995).
pIC50, pKi: −log10 of the molar value.

Legend:
[1] = species: Oryctolagus cuniculus; assay: Displacement of [3H]PAF from rabbit PAF receptor in isolated platelet plasma membrane at 10 uM; type: cell membranes
[2] = Displacement of [3H]PAF from rabbit PAF receptor in isolated platelet plasma membrane; type: cell membranes, Oryctolagus cuniculus

Activity [1] [%]	pIC50 [2]	SMILES	pKi [2]
63	5.14	C=CCC1=C[C@@]2(OC)[C@@H](C)[C@H](c3ccc(OC)c(OC)c3)[C@@H](C1=O)[C@@H]2OC(C)=O [PUBERULIN A]	5.33
43	≤ 5.00	C=CCC1=C[C@@]2(OC)[C@@H](C)[C@H](c3ccc4c(c3)OCO4)[C@@H](C1=O)[C@@H]2OC(C)=O [PUBERULIN B]	
66	5.24	C=CC[C@]12C=C(OC)C(=O)[C@H]([C@@H](c3ccc(O)c(OC)c3)[C@@H]1C)[C@@H]2OC(C)=O [PUBERULIN C]	5.43
